Experimental findings from patent US3985875A, “ω-(N-acylamino)alkylphosphoryl ethanolamines, pharmaceutical compositions containing them, and their uses” (Dainippon Pharmaceutical Co., Ltd., priority 1974, dated 1976) are described below.

For one assay, the target named is T1, Renin (Homo sapiens, UniProt P00797).
T1 sequence (P00797 67-406): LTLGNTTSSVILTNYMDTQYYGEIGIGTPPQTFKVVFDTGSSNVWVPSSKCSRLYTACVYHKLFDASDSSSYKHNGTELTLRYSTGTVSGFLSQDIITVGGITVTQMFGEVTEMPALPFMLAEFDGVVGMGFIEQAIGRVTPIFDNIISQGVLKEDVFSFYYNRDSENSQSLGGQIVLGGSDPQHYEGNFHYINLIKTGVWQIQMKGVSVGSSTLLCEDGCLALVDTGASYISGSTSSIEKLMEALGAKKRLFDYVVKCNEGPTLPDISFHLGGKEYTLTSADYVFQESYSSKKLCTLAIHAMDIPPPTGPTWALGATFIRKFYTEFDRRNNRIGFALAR
Kind of assay: Renin-inhibitory activity, Method I (inhibition of Angiotensin I formation, RIA). In kind it is biochemical. Conditions: Table 2; 37°C, 4 hours, 1.25 mg/ml; read-out: Rate of inhibiting the formation of Angiotensin I determined by Method I. The procedure:
Renin (see E. Haas et al. Circulation Research, Vol. 19, p. 739, 1966 and Vol. 31, p. 65, 1972) was incubated in Angiotensinogen at 37° C. for 2 to 6 hours. Similarly, renin was incubated under the same conditions in the presence of 0.313 to 2.5 mg/ml. of each of the test compounds listed above. The amount of Angiotensin I was measured by radioimmunoassay (RIA) (E. Haber et al., J. Clin. Endocrinol., Vol. 29, p. 1349, 1969), and made the renin activity.
(§1) The results are shown in Table 1 (the rate of inhibiting the formation of Angiotensin I, as determined by Method I, when the plasma was incubated at 37° C. for 2, 4 and 6 hours respectively), and Table 2 (the rate of inhibiting the formation of Angiotensin I when the plasma was incubated at 37° C. for 4 hours, with the compound concentration of 1.25 mg/ml.)

Another assay concerns the target T2, High renin plasma (Canis lupus familiaris, UniProt Q6DYE7).
T2 construct: High renin plasma prepared by constriction of the renal artery of a dog anesthetized with Nembutal; from tissue; host or cells: plasma of a dog with constricted renal artery
T2 sequence (Q6DYE7 66-403): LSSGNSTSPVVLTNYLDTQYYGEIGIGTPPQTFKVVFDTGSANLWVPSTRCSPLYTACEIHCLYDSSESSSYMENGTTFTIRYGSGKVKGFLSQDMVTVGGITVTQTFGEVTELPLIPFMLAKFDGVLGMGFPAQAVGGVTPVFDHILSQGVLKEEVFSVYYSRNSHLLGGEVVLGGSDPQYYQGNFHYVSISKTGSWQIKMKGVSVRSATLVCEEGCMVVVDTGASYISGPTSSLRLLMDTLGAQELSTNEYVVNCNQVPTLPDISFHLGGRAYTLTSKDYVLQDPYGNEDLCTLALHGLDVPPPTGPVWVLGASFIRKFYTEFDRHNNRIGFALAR
The assay is described as follows: Renin-inhibitory activity, Method II (high renin plasma of dog, inhibition of Angiotensin I formation). In kind it is biochemical. The note with it: Table 2; 37°C, 4 hours, 1.25 mg/ml; read-out: Rate of inhibiting the formation of Angiotensin I determined by Method II. The procedure:
High renin plasma prepared by constriction of the renal artery of a dog anesthetized with Nembutal (the plasma which when incubated at 37°40 C. for 6 hours, yields 30 to […]. of Angiotensin I) was incubated at 37° C. for 2 to 6 hours in the same way as in Method I, and also under the same conditions in the presence of 1.25 mg/ml. of each of the test compounds.
as §1

Assay [1] concerns renal hypertensive rats. The assay is described as follows: Antihypertensive activity in rats, p.o. (Table 4). Conditions: 100 mg/kg/day p.o. In kind it is in vivo, rat. The procedure: (§2) An aqueous solution or suspension in peanut oil of each test compound as administered intramuscularly (i.m.) or orally (p.o.) at a dose of 30 to 100 mg/kg (body weight)/day once every morning over the period of 6 to 7 days.
(§3) The blood pressure of each rat was measured daily before and 5 hours after each administration. Furthermore, the blood pressure was measured every morning after drug withdrawal over a period of 3 to 6 days.
(§4) Test compounds (1)-(4) decreased the blood pressure of renal hypertensive rats with a dose of 30 mg/kg/day i.m.. […] The antihypertensive rats with a dose of 100 mg/kg/day p.o..

The subject of assay [2] is renal hypertensive rats. Kind of assay: Antihypertensive activity in renal hypertensive rats, i.m. (Table 3). Type of assay: in vivo, rat. The note with it: 30 mg/kg/day i.m. Here is the method:
as §2, §3, §4

Setting [3] is: 1st day, 0 h (immediately before administration).
Where [4] appears, read: 1st day, 5 hours after administration.
[5] abbreviates: 2nd day, 0 h (immediately before administration).
Where [6] appears, read: 2nd day, 5 hours after administration.
[7] abbreviates: 3rd day, 0 h (immediately before administration).
[8] abbreviates: 3rd day, 5 hours after administration.
Setting [9] is: 4th day, 0 h (immediately before administration).
[10] abbreviates: 4th day, 5 hours after administration.
[11] abbreviates: 5th day, 0 h (immediately before administration).
Where [12] appears, read: 5th day, 5 hours after administration.
The mark [13] stands for this setting: 6th day, 0 h (immediately before administration).
[14] abbreviates: 6th day, 5 hours after administration.
[15] abbreviates: 7th day, 0 h (immediately before administration).
Where [16] appears, read: 7th day, 5 hours after administration.

`NCCOP(=O)(O)OCCCNC(=O)COc1ccc(Oc2ccc(Cl)cc2)cc1` [(7), 3-[4-(4'-chlorophenoxy)phenoxyacetylamino]propylphosphoryl ethanolamine]: the inhibition at 1250 µg/mL at Renin stood at 64%; at High renin plasma, 52%. The “Changes of blood pressure after drug withdrawal” value (shortened to “Changes … after drug withdrawal”) in the assay on renal hypertensive rats [1] (1st day after withdrawal) was -19 mmHg; in the assay on renal hypertensive rats [1] (2nd day after withdrawal) it was -11 mmHg; in the assay with renal hypertensive rats [1] (3rd day after withdrawal) it was -5 mmHg; with renal hypertensive rats [1] (4th day after withdrawal), -5 mmHg; in the assay on renal hypertensive rats [1] (5th day after withdrawal), -3 mmHg; in the assay on renal hypertensive rats [1] (6th day after withdrawal) it was -1 mmHg. Further, the “Changes of blood pressure” value is recorded as 0 mmHg in the assay with renal hypertensive rats [1] (setting [3]); -6 mmHg in the assay on renal hypertensive rats [1] (setting [4]); -3 mmHg with renal hypertensive rats [1] (setting [5]); -10 mmHg with renal hypertensive rats [1] (setting [6]); -3 mmHg with renal hypertensive rats [1] (setting [7]); -18 mmHg with renal hypertensive rats [1] (setting [8]). Besides, the “Changes of blood pressure” value with renal hypertensive rats [1] (setting [9]) is listed as -10 mmHg; in the assay with renal hypertensive rats [1] (setting [10]), -19 mmHg; in the assay on renal hypertensive rats [1] (setting [11]), -10 mmHg; in the assay with renal hypertensive rats [1] (setting [12]), -21 mmHg; in the assay on renal hypertensive rats [1] (setting [13]) it was -11 mmHg; with renal hypertensive rats [1] (setting [14]) it was -25 mmHg. Further, the “Changes of blood pressure” value was -18 mmHg in the assay on renal hypertensive rats [1] (setting [15]) and -28 mmHg in the assay with renal hypertensive rats [1] (setting [16]).

Consider `CC(Oc1ccc(Oc2ccc(Cl)cc2)cc1)C(=O)NCCCOP(=O)(O)OCCN` (stereo not drawn) [(8), 3-{α-[4-(4'-chlorophenoxy)phenoxy]propionylamino} propylphosphoryl ethanolamine], for which the inhibition at 1250 µg/mL is 67% at Renin and 51% at High renin plasma. For the same compound, the “Changes … after drug withdrawal” value in the assay on renal hypertensive rats [1] (1st day after withdrawal) was -22 mmHg; in the assay with renal hypertensive rats [1] (2nd day after withdrawal), -12 mmHg; with renal hypertensive rats [1] (3rd day after withdrawal), -5 mmHg; with renal hypertensive rats [1] (4th day after withdrawal), “+2 mmHg”; in the assay with renal hypertensive rats [1] (5th day after withdrawal) it was “+1 mmHg”; in the assay on renal hypertensive rats [1] (6th day after withdrawal) it was “+1 mmHg”. Also, the “Changes of blood pressure” value is listed as 0 mmHg with renal hypertensive rats [1] (setting [3]); “+4 mmHg” in the assay on renal hypertensive rats [1] (setting [4]); “+5 mmHg” in the assay with renal hypertensive rats [1] (setting [5]); -1 mmHg with renal hypertensive rats [1] (setting [6]); -6 mmHg with renal hypertensive rats [1] (setting [7]); -13 mmHg with renal hypertensive rats [1] (setting [8]). For the same compound, the “Changes of blood pressure” value with renal hypertensive rats [1] (setting [9]) is on record as -10 mmHg; with renal hypertensive rats [1] (setting [10]), -16 mmHg; in the assay on renal hypertensive rats [1] (setting [11]), -10 mmHg; with renal hypertensive rats [1] (setting [12]), -16 mmHg; in the assay with renal hypertensive rats [1] (setting [13]), -9 mmHg; in the assay with renal hypertensive rats [1] (setting [14]) it was -23 mmHg. The “Changes of blood pressure” value with renal hypertensive rats [1] (setting [15]) was -13 mmHg; with renal hypertensive rats [1] (setting [16]), -25 mmHg.

With `CCCCCC=CCC=CCCCCCCCC(=O)NCCCOP(=O)(O)OCCN` [(4), 3-(Octadeca-9,12-dienoylamino)propylphosphoryl ethanolamine], the inhibition at 1250 µg/mL was 29% on Renin and 24% on High renin plasma. For the same compound, the “Changes … after drug withdrawal” value in the assay with renal hypertensive rats [2] (1st day after withdrawal) is listed as -29 mmHg; with renal hypertensive rats [2] (2nd day after withdrawal) it was -12 mmHg; in the assay on renal hypertensive rats [2] (3rd day after withdrawal), -2 mmHg. Also, the “Changes of blood pressure” value is reported as 0 mmHg in the assay on renal hypertensive rats [2] (setting [3]); -15 mmHg with renal hypertensive rats [2] (setting [4]); -7 mmHg with renal hypertensive rats [2] (setting [5]); -20 mmHg with renal hypertensive rats [2] (setting [6]); -12 mmHg in the assay with renal hypertensive rats [2] (setting [7]); -27 mmHg in the assay with renal hypertensive rats [2] (setting [8]). Besides, the “Changes of blood pressure” value is on record as -22 mmHg in the assay with renal hypertensive rats [2] (setting [9]); -37 mmHg with renal hypertensive rats [2] (setting [10]); -28 mmHg in the assay with renal hypertensive rats [2] (setting [11]); -41 mmHg in the assay on renal hypertensive rats [2] (setting [12]); -27 mmHg with renal hypertensive rats [2] (setting [13]); -41 mmHg with renal hypertensive rats [2] (setting [14]).

With `CCC=CCC=CCC=CCCCCCCCC(=O)NCCOP(=O)(O)OCCN` [(1), 2-(Octadeca-9,12,15-trienoylamino)ethylphosphoryl ethanolamine], the inhibition at 1250 µg/mL on Renin is 61%; at High renin plasma, 50%. Further, the results for the “Changes … after drug withdrawal” value in the assay on renal hypertensive rats [2] (1st day after withdrawal), in the assay on renal hypertensive rats [2] (2nd day after withdrawal) and with renal hypertensive rats [2] (3rd day after withdrawal) were -21 mmHg, -13 mmHg and -4 mmHg, respectively. In addition, the “Changes of blood pressure” value is given as 0 mmHg in the assay with renal hypertensive rats [2] (setting [3]); -17 mmHg in the assay with renal hypertensive rats [2] (setting [4]); -6 mmHg in the assay on renal hypertensive rats [2] (setting [5]); -33 mmHg in the assay with renal hypertensive rats [2] (setting [6]); -8 mmHg in the assay on renal hypertensive rats [2] (setting [7]); -35 mmHg with renal hypertensive rats [2] (setting [8]). The “Changes of blood pressure” value in the assay on renal hypertensive rats [2] (setting [9]) was -16 mmHg; in the assay on renal hypertensive rats [2] (setting [10]) it was -37 mmHg; with renal hypertensive rats [2] (setting [11]), -20 mmHg; in the assay on renal hypertensive rats [2] (setting [12]), -35 mmHg; in the assay with renal hypertensive rats [2] (setting [13]), -24 mmHg; with renal hypertensive rats [2] (setting [14]) it was -35 mmHg.
